Columns and labels:
Experiment in all cases: Detection of nitroreductase activity on Columbia medium with substrate
Format in all cases: cell-based
Settings in all cases: 24 hours at 37° C.
[1] = tested on: Providencia rettgeri NCTC 7 475; design: key to Growth: NG: no growth; 0.5: low growth; 1: moderate growth; 2: good growth; key to Col. (color of the colonies): —: no color/fluorescence
Procedure: (§1) 40 mg of substrate were dissolved in 4 ml of dimethylsulfoxide and added to 400 ml of previously autoclaved Columbia medium. The medium was distributed in Petri dishes 90 mm in diameter at the rate of 20 ml per dish. Seventeen strains of microorganisms obtained from collections and belonging to various species of bacteria and yeasts are inoculated as spots of about 10 000 colony forming units. The media are incubated for 24 hours at 37° C. and then the colonies formed are examined visually and under a UV lamp at 365 nm.

[2] = tested on: Enterobacter cloacae NCTC 11 936; design: key to Growth: NG: no growth; 0.5: low growth; 1: moderate growth; 2: good growth; key to Col. (color of the colonies): —: no color/fluorescence
Procedure: as §1

[3] = tested on: Serratia marcescens NCTC 10 211; design: key to Growth: NG: no growth; 0.5: low growth; 1: moderate growth; 2: good growth; key to Col. (color of the colonies): —: no color/fluorescence
Procedure: as §1

[4] = tested on: Escherichia coli NCTC 10 418; design: key to Growth: NG: no growth; 0.5: low growth; 1: moderate growth; 2: good growth; key to Col. (color of the colonies): —: no color/fluorescence
Procedure: as §1

[5] = tested on: Staphylococcus epidermidis NCTC 11 047; design: key to Growth: NG: no growth; 0.5: low growth; 1: moderate growth; 2: good growth; key to Col. (color of the colonies) / Fluo. (fluorescence of the colonies): —: no color/fluorescence
Procedure: as §1

[6] = tested on: Enterococcus faecalis NCTC 775; design: key to Growth: NG: no growth; 0.5: low growth; 1: moderate growth; 2: good growth; key to Col. (color of the colonies) / Fluo. (fluorescence of the colonies): —: no color/fluorescence
Procedure: as §1

[7] = tested on: Salmonella typhimurium NCTC 74; design: key to Growth: NG: no growth; 0.5: low growth; 1: moderate growth; 2: good growth; key to Col. (color of the colonies) / Fluo. (fluorescence of the colonies): —: no color/fluorescence
Procedure: as §1

[8] = tested on: Candida albicans ATCC 90 028; design: key to Growth: NG: no growth; 0.5: low growth; 1: moderate growth; 2: good growth; key to Col. (color of the colonies) / Fluo. (fluorescence of the colonies): —: no color/fluorescence
Procedure: as §1

[9] = tested on: Bacillus subtilis NCTC 9 372; design: key to Growth: NG: no growth; 0.5: low growth; 1: moderate growth; 2: good growth; key to Col. (color of the colonies) / Fluo. (fluorescence of the colonies): —: no color/fluorescence
Procedure: as §1

[10] = tested on: Staphylococcus aureus NCTC 11 939; design: key to Growth: NG: no growth; 0.5: low growth; 1: moderate growth; 2: good growth; key to Col. (color of the colonies) / Fluo. (fluorescence of the colonies): —: no color/fluorescence
Procedure: as §1

[11] = tested on: Candida glabrata NCPF 3 943; design: key to Growth: NG: no growth; 0.5: low growth; 1: moderate growth; 2: good growth; key to Col. (color of the colonies) / Fluo. (fluorescence of the colonies): —: no color/fluorescence
Procedure: as §1

[12] = tested on: Staphylococcus aureus NCTC 6 571; design: key to Growth: NG: no growth; 0.5: low growth; 1: moderate growth; 2: good growth; key to Col. (color of the colonies) / Fluo. (fluorescence of the colonies): —: no color/fluorescence
Procedure: as §1

[13] = tested on: Pseudomonas aeruginosa NCTC 10 662; design: key to Growth: NG: no growth; 0.5: low growth; 1: moderate growth; 2: good growth; key to Col. (color of the colonies) / Fluo. (fluorescence of the colonies): —: no color/fluorescence
Procedure: as §1

[14] = tested on: Enterococcus faecium NCTC 7 171; design: key to Growth: NG: no growth; 0.5: low growth; 1: moderate growth; 2: good growth; key to Col. (color of the colonies) / Fluo. (fluorescence of the colonies): —: no color/fluorescence
Procedure: as §1

[15] = tested on: Yersinia enterocolitica NCTC 11 176; design: key to Growth: NG: no growth; 0.5: low growth; 1: moderate growth; 2: good growth; key to Col. (color of the colonies) / Fluo. (fluorescence of the colonies): —: no color/fluorescence
Procedure: as §1

[16] = tested on: Streptococcus pyogenes NCTC 8 306; design: key to Growth: NG: no growth; 0.5: low growth; 1: moderate growth; 2: good growth; key to Col. (color of the colonies) / Fluo. (fluorescence of the colonies): —: no color/fluorescence
Procedure: as §1

[17] = tested on: Listeria monocytogenes NCTC 11 994; design: key to Growth: NG: no growth; 0.5: low growth; 1: moderate growth; 2: good growth; key to Col. (color of the colonies) / Fluo. (fluorescence of the colonies): —: no color/fluorescence
Procedure: as §1

[18] = 40 mg substrate in 400 ml Columbia medium

Growth [2, 18]: 2 | Fluo. (fluorescence of the colonies) ([2]; UV lamp at 365 nm): Yellow | Col. (color of the colonies) ([2]; examined visually): — | Growth [3, 18]: 2 | Fluo. (fluorescence of the colonies) ([3]; UV lamp at 365 nm): Yellow | Col. (color of the colonies) ([3]; examined visually): — | Growth [6, 18]: 1 | Fluo. (fluorescence of the colonies) ([6]; UV lamp at 365 nm): — | Col. (color of the colonies) ([6]; examined visually): — | Growth [7, 18]: 0.5 | Fluo. (fluorescence of the colonies) ([7]; UV lamp at 365 nm): — | Col. (color of the colonies) ([7]; examined visually): — | Growth [9, 18]: NG | Fluo. (fluorescence of the colonies) ([9]; UV lamp at 365 nm): — | Col. (color of the colonies) ([9]; examined visually): — | Growth [13, 18]: 2 | Fluo. (fluorescence of the colonies) ([13]; UV lamp at 365 nm): — | Col. (color of the colonies) ([13]; examined visually): — | Growth [14, 18]: 1 | Fluo. (fluorescence of the colonies) ([14]; UV lamp at 365 nm): — | Col. (color of the colonies) ([14]; examined visually): — | Growth [16, 18]: 1 | Fluo. (fluorescence of the colonies) ([16]; UV lamp at 365 nm): — | Col. (color of the colonies) ([16]; examined visually): — | Growth [17, 18]: 1 | Fluo. (fluorescence of the colonies) ([17]; UV lamp at 365 nm): — | Col. (color of the colonies) ([17]; examined visually): —
SMILES: O=[N+]([O-])c1ccc(C=Cc2ccncc2)cc1 [4NSP, 4,4′-Nitrostyrylpyridine]
Growth [1, 18]: 2 | Fluo. (fluorescence of the colonies) ([1]; UV lamp at 365 nm): Pale yellow | Col. (color of the colonies) ([1]; examined visually): — | Growth [4, 18]: 2 | Fluo. (fluorescence of the colonies) ([4]; UV lamp at 365 nm): Yellow | Col. (color of the colonies) ([4]; examined visually): — | Growth [5, 18]: 0.5 | Fluo. (fluorescence of the colonies) ([5]; UV lamp at 365 nm): — | Col. (color of the colonies) ([5]; examined visually): — | Growth [8, 18]: NG | Fluo. (fluorescence of the colonies) ([8]; UV lamp at 365 nm): — | Col. (color of the colonies) ([8]; examined visually): — | Growth [10, 18]: 1 | Fluo. (fluorescence of the colonies) ([10]; UV lamp at 365 nm): — | Col. (color of the colonies) ([10]; examined visually): — | Growth [11, 18]: 1 | Fluo. (fluorescence of the colonies) ([11]; UV lamp at 365 nm): — | Col. (color of the colonies) ([11]; examined visually): — | Growth [12, 18]: 1 | Fluo. (fluorescence of the colonies) ([12]; UV lamp at 365 nm): — | Col. (color of the colonies) ([12]; examined visually): — | Growth [15, 18]: 2 | Fluo. (fluorescence of the colonies) ([15]; UV lamp at 365 nm): — | Col. (color of the colonies) ([15]; examined visually): —

Source: patent US8535903B2, “Nitroreductase enzymatic substrates” (BioMerieux, S.A., priority 2009, dated 2013)
